Reference: patent US10632119B2, “Fused bicyclic 2,4-diaminopyrimidine derivative as a dual ALK and FAK inhibitor” (priority 2012, dated 2020)

Experiments:
[1] = system: Sup-M2 ALCL tumor xenografts; assay: Anti-tumor efficacy, NPM-ALK positive Sup-M2 ALCL xenograft; conditions: for anti-tumor efficacy: 12 days
Protocol: Anti-Tumor Efficacy Studies—General Protocol
The tumor volumes were then calculated with the formula of 0.5236*L*W*(L+W)/2.
Anti-Tumor Efficacy in NPM-ALK Positive Sup-M2 and Karpas-299 ALCL Tumor Xenograft Models in Mice

[2] = 4-week oral toxicity and toxicokinetic study of CEP-37440 in monkeys, 4-week recovery; assay type: in vivo, cynomolgus monkeys (Macaca fascicularis)
Protocol: Male and female cynomolgus monkeys (Macaca fascicularis) were assigned to 4 groups (3-treated and a vehicle control group) consisting of 5 monkeys/sex/group. Dose levels evaluated in this study were 0 (pH-adjusted reverse osmosis water), 2.5, 7.5, and 20 mg/kg/day. The dosing volume was 5 mL/kg. CEP-37440 was administered as the trihydrochloride dihydrate salt form. After completion of the dosing phase, 3 monkeys/sex/group were euthanized and 2 monkeys/sex/group continued on a treatment-free recovery phase for an additional 4 weeks.

[3] = bid or qd oral dosing at 10 and 30 mg/kg

In the case of `CNC(=O)c1ccccc1Nc1nc(Nc2ccc3c(c2OC)CCC[C@H](N2CCN(CCO)CC2)C3)ncc1Cl` [CEP-37440, 2-[[5-chloro-2-[[(6S)-6-[4-(2-hydroxyethyl)piperazin-1-yl]-1-methoxy-6,7,8,9-tetrahydro-5H-benzo[7]annulen-2-yl]amino]pyrimidin-4-yl]amino]-N-methyl-benzamide], the anti-tumor efficacy ([1]; 10 mg/kg or lower, bid, po) was “No significant anti-tumor activity”, the anti-tumor efficacy ([1]; 30 mg/kg bid po) was “complete or near complete tumor regression” and the anti-tumor efficacy ([1]; 30 mg/kg, qd, po) was “partial tumor regression”. For the same molecule, the anti-tumor efficacy ([1]; 55 mg/kg qd po) was “complete or near complete tumor regression”, the “tolerability, body weight” value ([1]; all dosing regimens) was “well tolerated with no overt toxicity and no significant compound-related body weight loss” and the “plasma level at 2 h post final dosing versus 2 h post single oral dose” value [1, 3] was 2-3 fold. The “tumor level at 2 h post final dosing versus 2 h post single oral dose” value [1, 3] was “more than 10 fold”, the survival ([2]; 2.5, 7.5, 20 mg/kg/day, 4 weeks) was “All animals survived until their scheduled sacrifice” and the ECG ([2]; 2.5, 7.5, 20.0 mg/kg/day, Days 3 and 27 of dosing, Day 28 of recovery) was “No drug-related changes in PR interval, QRS duration, QT interval, corrected QT (QTc) interval, RR interval, or heart rate”. The body weight ([2]; dosing or recovery phase) was “no drug-related effects on body weight or body weight gain”, the “doses well tolerated, no drug-related effects” value ([2]; oral, 28 consecutive days) was “up to 20 mg/kg/day” and the “clinical pathology test results” value ([2]; up to 20.0 mg/kg/day) was “had no effect on clinical pathology test results”. The pulmonary edema ([2]; up to 20 mg/kg/day, 28 days) was “no evidence whatsoever of pulmonary edema”.
